From patent publication US11279733B2, “Peptide antibiotics” (priority 2017, dated 2022)
Converted amounts (≈) assume the structure as drawn. Positions of bridges follow the written chain, without caps; N, C: chain ends. Non-standard residues stand in square brackets, D forms with d. Residues, ends and D or L forms follow the SMILES beside them. *: point of attachment. Decanoyl(3R-OH) = CCCCCCC[C@@H](O)CC(=O)*; dPhe(4-NH2) = Nc1ccc(C[C@@H](N)C(=O)O)cc1; d3Pal = N[C@H](Cc1cccnc1)C(=O)O; X11 = CCCCCCCNc1ccc(C(=O)*)cc1; X9 = CCCCCC1CCC(C(=O)*)CC1; dOrn = NCCC[C@@H](N)C(=O)O; dDab = NCC[C@@H](N)C(=O)O; Octanoyl = CCCCCCCC(=O)*; Dab = NCC[C@H](N)C(=O)O

Columns and labels:
[1] = test system: A. baumannii ATCC 19606; settings: ATCC 19606
In short: (§1)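 Mid-log cultures grown in Mueller Hinton broth at 37° C were tested by 2-fold broth microdilution at 5×10^5 CFU/mL final. Compounds were dissolved in water and tested over a final range of 32 to 0.015 μg/mL.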

[2] = test system: A. baumannii GN_093 PmxR; settings: GN 093 PmxR
In short: as §1

[3] = test system: E. coli ATCC 25922; settings: ATCC 25922
In short: as §1

[4] = test system: K. pneumoniae ATCC 13883; settings: ATCC 13883
In short: as §1

[5] = test system: K. pneumoniae ATCC 700603, MDR; settings: ATCC 700603
In short: as §1

[6] = test system: K. pneumoniae ATCC BAA-2146, NDM-1 pos; settings: ATCC BAA-2146
In short: as §1

[7] = test system: K. pneumoniae GN_102 PmxR; settings: GN 102 PmxR
In short: as §1

[8] = test system: K. pneumoniae GN_106, PmxR; settings: GN 106, PmxR
In short: as §1

[9] = test system: P. aeruginosa ATCC 27853; settings: ATCC 27853
In short: as §1

[10] = test system: P. aeruginosa GN_043, PmxR; settings: P. aeruginosa GN_043, PmxR
In short: as §1

[11] = test system: P. aeruginosa GN_105, PmxR; settings: GN 105, PmxR
In short: as §1

[12] = test system: S. aureus ATCC 25923, MSSA; settings: ATCC 25923
In short: as §1

[13] = in vitro; settings: human
In short: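 HK2 cells were seeded at 2000 per well in DMEM/F12 with 10% FBS and left to attach for 24 h at 37 °C, 5% CO2. They were then exposed for 24 h to 3-fold peptide dilutions starting from 600 μM solutions in quadruplicate. LDH release was read at 450 nm, and CC50 was fitted from dose-response curves.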

CCCCCCC[C@@H](O)CC(=O)N[C@H](CCCN)C(=O)N[C@H]1CCNC(=O)[C@H]([C@@H](C)O)NC(=O)[C@H](CCN)NC(=O)[C@H](CCN)NC(=O)[C@H](CC(C)C)NC(=O)[C@@H](Cc2ccccc2)NC(=O)[C@H](CCN)NC1=O [compound 6396, 3(R)OH-nC9CO-D-Orn-cyc[L-Dab-L-Dab-D-Phe-L-Leu-L-Dab-L-Dab-L-Thr]] ({Decanoyl(3R-OH)}-[dOrn][Dab][Dab][dF]L[Dab][Dab]T; lactam 2-C)
MIC A. baumannii ATCC 19606 [1]: >64 µg/mL
MIC A. baumannii GN_093 PmxR [2]: >32 µg/mL
MIC E. coli ATCC 25922 [3]: 16 µg/mL (≈ 15.3 µM)
MIC K. pneumoniae ATCC 13883 [4]: >64 µg/mL
MIC K. pneumoniae ATCC 700603, MDR [5]: 16 µg/mL (≈ 15.3 µM)
MIC K. pneumoniae ATCC BAA-2146, NDM-1 pos [6]: 32 µg/mL (≈ 30.6 µM)
MIC K. pneumoniae GN_102 PmxR [7]: >32 µg/mL
MIC K. pneumoniae GN_106, PmxR [8]: >32 µg/mL
MIC P. aeruginosa ATCC 27853 [9]: 16 µg/mL (≈ 15.3 µM)
MIC P. aeruginosa GN_043, PmxR [10]: 16 µg/mL (≈ 15.3 µM)
MIC P. aeruginosa GN_105, PmxR [11]: 16 µg/mL (≈ 15.3 µM)
MIC S. aureus ATCC 25923, MSSA [12]: >32 µg/mL
CC50 at 24 h [13]: > 300 µM

CCCCCCC[C@@H](O)CC(=O)N[C@H](Cc1ccc(N)cc1)C(=O)N[C@H]1CCNC(=O)[C@H]([C@@H](C)O)NC(=O)[C@H](CCN)NC(=O)[C@H](CCN)NC(=O)[C@H](CC(C)C)NC(=O)[C@@H](Cc2ccccc2)NC(=O)[C@H](CCN)NC1=O [compound 6397, 3(R)OH-nC9CO-D-4NH2Phe-cyc[L-Dab-L-Dab-D-Phe-L-Leu-L-Dab-L-Dab-L-Thr]] ({Decanoyl(3R-OH)}-[dPhe(4-NH2)][Dab][Dab][dF]L[Dab][Dab]T; lactam 2-C)
MIC A. baumannii ATCC 19606 [1]: >64 µg/mL
MIC A. baumannii GN_093 PmxR [2]: >32 µg/mL
MIC E. coli ATCC 25922 [3]: >64 µg/mL
MIC K. pneumoniae ATCC 13883 [4]: >64 µg/mL
MIC K. pneumoniae ATCC 700603, MDR [5]: >64 µg/mL
MIC K. pneumoniae ATCC BAA-2146, NDM-1 pos [6]: >64 µg/mL
MIC K. pneumoniae GN_102 PmxR [7]: >32 µg/mL
MIC K. pneumoniae GN_106, PmxR [8]: >32 µg/mL
MIC P. aeruginosa ATCC 27853 [9]: >64 µg/mL
MIC P. aeruginosa GN_043, PmxR [10]: >32 µg/mL
MIC P. aeruginosa GN_105, PmxR [11]: >32 µg/mL
MIC S. aureus ATCC 25923, MSSA [12]: >32 µg/mL
CC50 at 24 h [13]: > 300 µM

CCCCCCC[C@@H](O)CC(=O)N[C@H](Cc1cccnc1)C(=O)N[C@H]1CCNC(=O)[C@H]([C@@H](C)O)NC(=O)[C@H](CCN)NC(=O)[C@H](CCN)NC(=O)[C@H](CC(C)C)NC(=O)[C@@H](Cc2ccccc2)NC(=O)[C@H](CCN)NC1=O [compound 6398, 3(R)OH-nC9CO-D-3PyPhe-cyc[L-Dab-L-Dab-D-Phe-L-Leu-L-Dab-L-Dab-L-Thr]] ({Decanoyl(3R-OH)}-[d3Pal][Dab][Dab][dF]L[Dab][Dab]T; lactam 2-C)
MIC A. baumannii ATCC 19606 [1]: >64 µg/mL
MIC A. baumannii GN_093 PmxR [2]: >32 µg/mL
MIC E. coli ATCC 25922 [3]: >64 µg/mL
MIC K. pneumoniae ATCC 13883 [4]: >64 µg/mL
MIC K. pneumoniae ATCC 700603, MDR [5]: >64 µg/mL
MIC K. pneumoniae ATCC BAA-2146, NDM-1 pos [6]: >64 µg/mL
MIC K. pneumoniae GN_102 PmxR [7]: 32 µg/mL (≈ 29.6 µM)
MIC K. pneumoniae GN_106, PmxR [8]: >32 µg/mL
MIC P. aeruginosa ATCC 27853 [9]: 32 µg/mL (≈ 29.6 µM)
MIC P. aeruginosa GN_043, PmxR [10]: >32 µg/mL
MIC P. aeruginosa GN_105, PmxR [11]: >32 µg/mL
MIC S. aureus ATCC 25923, MSSA [12]: >32 µg/mL
CC50 at 24 h [13]: > 300 µM

CCCCCCCC(=O)N[C@H](CCN)C(=O)N[C@H]1CCNC(=O)[C@H]([C@@H](C)O)NC(=O)[C@H](CCN)NC(=O)[C@H](CCN)NC(=O)[C@H](CC(C)C)NC(=O)[C@@H](Cc2ccccc2)NC(=O)[C@H](CCN)NC1=O [compound 6399, nC7CO-D-Dab-cyc[L-Dab-L-Dab-D-Phe-L-Leu-L-Dab-L-Dab-L-Thr]] (Octanoyl-[dDab][Dab][Dab][dF]L[Dab][Dab]T; lactam 2-C)
MIC A. baumannii ATCC 19606 [1]: >32 µg/mL
MIC A. baumannii GN_093 PmxR [2]: >32 µg/mL
MIC E. coli ATCC 25922 [3]: 8 µg/mL (≈ 8.1 µM)
MIC K. pneumoniae ATCC 13883 [4]: >32 µg/mL
MIC K. pneumoniae ATCC 700603, MDR [5]: 16 µg/mL (≈ 16.2 µM)
MIC K. pneumoniae ATCC BAA-2146, NDM-1 pos [6]: >32 µg/mL
MIC K. pneumoniae GN_102 PmxR [7]: >32 µg/mL
MIC K. pneumoniae GN_106, PmxR [8]: >32 µg/mL
MIC P. aeruginosa ATCC 27853 [9]: 1 µg/mL (≈ 1.01 µM)
MIC P. aeruginosa GN_043, PmxR [10]: 8 µg/mL (≈ 8.1 µM)
MIC P. aeruginosa GN_105, PmxR [11]: >32 µg/mL
MIC S. aureus ATCC 25923, MSSA [12]: >32 µg/mL
CC50 at 24 h [13]: > 300 µM

CCCCCCCNc1ccc(C(=O)N[C@H](CCN)C(=O)N[C@H]2CCNC(=O)[C@H]([C@@H](C)O)NC(=O)[C@H](CCN)NC(=O)[C@H](CCN)NC(=O)[C@H](CC(C)C)NC(=O)[C@@H](Cc3ccccc3)NC(=O)[C@H](CCN)NC2=O)cc1 [compound 6403, 4(C7H15NH)PheCO-D-Dab-cyc[L-Dab-L-Dab-D-Phe-L-Leu-L-Dab-L-Dab-L-Thr]] (X11-[dDab][Dab][Dab][dF]L[Dab][Dab]T; lactam 2-C)
MIC A. baumannii ATCC 19606 [1]: >64 µg/mL
MIC A. baumannii GN_093 PmxR [2]: >32 µg/mL
MIC E. coli ATCC 25922 [3]: >64 µg/mL
MIC K. pneumoniae ATCC 13883 [4]: >64 µg/mL
MIC K. pneumoniae ATCC 700603, MDR [5]: >64 µg/mL
MIC K. pneumoniae ATCC BAA-2146, NDM-1 pos [6]: >64 µg/mL
MIC K. pneumoniae GN_102 PmxR [7]: >32 µg/mL
MIC K. pneumoniae GN_106, PmxR [8]: >32 µg/mL
MIC P. aeruginosa ATCC 27853 [9]: 16 µg/mL (≈ 14.8 µM)
MIC P. aeruginosa GN_043, PmxR [10]: 32 µg/mL (≈ 29.6 µM)
MIC P. aeruginosa GN_105, PmxR [11]: >32 µg/mL
MIC S. aureus ATCC 25923, MSSA [12]: >32 µg/mL
CC50 at 24 h [13]: > 300 µM

CCCCCC1CCC(C(=O)N[C@H](CCN)C(=O)N[C@H]2CCNC(=O)[C@H]([C@@H](C)O)NC(=O)[C@H](CCN)NC(=O)[C@H](CCN)NC(=O)[C@H](CC(C)C)NC(=O)[C@@H](Cc3ccccc3)NC(=O)[C@H](CCN)NC2=O)CC1 (stereo partly drawn) [compound 6404, C11H21CO-D-Dab-cyc[L-Dab-L-Dab-D-Phe-L-Leu-L-Dab-L-Dab-L-Thr]] (X9-[dDab][Dab][Dab][dF]L[Dab][Dab]T; lactam 2-C)
MIC A. baumannii ATCC 19606 [1]: 64 µg/mL (≈ 61.4 µM)
MIC A. baumannii GN_093 PmxR [2]: >32 µg/mL
MIC E. coli ATCC 25922 [3]: 1 µg/mL (≈ 0.959 µM)
MIC K. pneumoniae ATCC 13883 [4]: 16 µg/mL (≈ 15.4 µM)
MIC K. pneumoniae ATCC 700603, MDR [5]: 0.5 µg/mL (≈ 0.48 µM)
MIC K. pneumoniae ATCC BAA-2146, NDM-1 pos [6]: 1 µg/mL (≈ 0.959 µM)
MIC K. pneumoniae GN_102 PmxR [7]: >32 µg/mL
MIC K. pneumoniae GN_106, PmxR [8]: >32 µg/mL
MIC P. aeruginosa ATCC 27853 [9]: 0.25 µg/mL (≈ 0.24 µM)
MIC P. aeruginosa GN_043, PmxR [10]: 32 µg/mL (≈ 30.7 µM)
MIC P. aeruginosa GN_105, PmxR [11]: 8 µg/mL (≈ 7.68 µM)
MIC S. aureus ATCC 25923, MSSA [12]: 8 µg/mL (≈ 7.68 µM)
CC50 at 24 h [13]: 38 µM
